Assay results: patent US20120065126A1, “Pharmaceutical Compositions Containing Antifungal Peptides” (BASF SE, priority 2009, published 2012)

Experiments:
[1] = test system: Escherichia coli (Stratagene, BLR); assay: Short-term effect (CFU); assay type: cell-based
Procedure: (§1) For this purpose, the procedure was as follows.
LB growth medium (Becton, Dickinson and Company, Sparks, USA) […] make up to 1 liter, set pH 7
The growth test was effected as follows: 10 ml of LB medium were inoculated with E. coli and incubated at 37° C. and 200 rpm overnight.
(§2) 1.5 ml reaction vessels were each filled with 1 ml of LB medium and inoculated with the E. coli suspension from the overnight culture. The E. coli suspension was adjusted at the start of the experiment to an optical density, measured at 600 nm, of 0.1. The concentration of the peptide solution in water or ZPT solution (zinc pyrithione, >96%, Sigma Aldrich) dissolved in DMSO was 2% (w/w).
(§3) The following growth was compared: • E. coli suspension and addition of P18 peptide with a final concentration in the 1.5 ml reaction vessel of 50 ppm after 5 minutes, 10 minutes, 20 minutes and 60 minutes • E. coli suspension and addition of P18 peptide with a final concentration in the 1.5 ml reaction vessel of 100 ppm after 5 minutes, 10 minutes, 20 minutes and 60 minutes • E. coli suspension and addition of P18 peptide with a final concentration in the 1.5 ml reaction vessel of 200 ppm after 5 minutes, 10 minutes, 20 minutes and 60 minutes • E. coli suspension and addition of P18 peptide with a final concentration in the 1.5 ml reaction vessel of 500 ppm after 5 minutes, 10 minutes, 20 minutes and 60 minutes • E. coli suspension and addition of P18 peptide with a final concentration in the 1.5 ml reaction vessel of 1000 ppm after 5 minutes, 10 minutes, 20 minutes and 60 minutes • E. coli suspension and addition of ZPT with a final concentration in the 1.5 ml reaction vessel of 50 ppm after 5 minutes, 10 minutes, 20 minutes and 60 minutes • E. coli suspension and addition of ZPT with a final concentration in the 1.5 ml reaction vessel of 100 ppm after 5 minutes, 10 minutes, 20 minutes and 60 minutes • E. coli suspension and addition of ZPT with a final concentration in the 1.5 ml reaction vessel of 200 ppm after 5 minutes, 10 minutes, 20 minutes and 60 minutes • E. coli suspension and addition of ZPT with a final concentration in the 1.5 ml reaction vessel of 500 ppm after 5 minutes, 10 minutes, 20 minutes and 60 minutes • E. coli suspension and addition of ZPT with a final concentration in the 1.5 ml reaction vessel of 1000 ppm after 5 minutes, 10 minutes, 20 minutes and 60 minutes
(§4) The 1.5 ml reaction vessels were incubated at room temperature.
After the incubation times specified, the colony forming units (CFU) were determined by streaking 1 μl of each of the suspensions diluted in 20 μl of LB medium and, after incubation for 2 days, counting the colonies.

[2] = test system: Staphylococcus epidermidis (DSM 1798); assay: Short-term effect (CFU); assay type: cell-based; conditions: for Inhibition in words: up to 60 minutes
Procedure: as §1
TSBY growth medium: Ready-made TSB medium (Becton, Dickinson and Company, Sparks, USA); 17 g of pancreatin-degraded casein 3 g of pancreatin-degraded soya 2.5 g of dextrose 5 g of sodium chloride 2.5 g of dipotassium phosphate 3 g of yeast extract (Becton, Dickinson and Company, Sparks, USA) make up to 1 liter, set pH 7
The growth test was effected as follows: 5 ml of TSBY medium were inoculated with S. epidermidis and incubated at 37° C. and 200 rpm overnight.
as §2, with “TSBY” for “LB”, “S. epidermidis” for “the E. coli”, “S. epidermidis” for “E. coli”
as §3, with “S. epidermidis” for “E. coli”
as §4
After the incubation times specified, the colony forming units (CFU) were determined by streaking 1 μl of each of the suspensions diluted in 20 μl of TSBY medium and, after incubation for 2 days, counting the colonies.

For “H-KWKLFKKIPKFLHLAKKF-NH2 [P18, H-KWKLFKKIPKFLHLAKKF-NH2]”, the “Colony forming units after the incubation time specified” value (from here on “Colony forming units”) ([1]; 50 ppm, 5 minutes) was 2000 ± 0 CFU, the “Colony forming units” value ([1]; 50 ppm, 10 minutes) was 2000 ± 0 CFU and the “Colony forming units” value ([1]; 50 ppm, 20 minutes) was 2000 ± 0 CFU. For the same substance, the “Colony forming units” value ([1]; 50 ppm, 60 minutes) was 1208 ± 532 CFU, the “Colony forming units” value ([1]; 100 ppm, 5 minutes) was 2000 ± 0 CFU and the “Colony forming units” value ([1]; 100 ppm, 10 minutes) was 2000 ± 0 CFU. The “Colony forming units” value ([1]; 100 ppm, 20 minutes) was 1836 ± 108 CFU, the “Colony forming units” value ([1]; 100 ppm, 60 minutes) was 726 ± 88 CFU and the “Colony forming units” value ([1]; 200 ppm, 5 minutes) was 2000 ± 0 CFU. The “Colony forming units” value ([1]; 200 ppm, 10 minutes) was 2000 ± 0 CFU, the “Colony forming units” value ([1]; 200 ppm, 20 minutes) was 1310 ± 144 CFU and the “Colony forming units” value ([1]; 200 ppm, 60 minutes) was 192 ± 56 CFU. For the same substance, the “Colony forming units” value ([1]; 500 ppm, 5 minutes) was 2000 ± 0 CFU, the “Colony forming units” value ([1]; 500 ppm, 10 minutes) was 2000 ± 0 CFU and the “Colony forming units” value ([1]; 500 ppm, 20 minutes) was 816 ± 96 CFU. For the same substance, the “Colony forming units” value ([1]; 500 ppm, 60 minutes) was 24 ± 16 CFU, the “Colony forming units” value ([1]; 1000 ppm, 5 minutes) was 2000 ± 0 CFU and the “Colony forming units” value ([1]; 1000 ppm, 10 minutes) was 2000 ± 0 CFU. For the same substance, the “Colony forming units” value ([1]; 1000 ppm, 20 minutes) was 369 ± 383 CFU, the “Colony forming units” value ([1]; 1000 ppm, 60 minutes) was 6 ± 2 CFU and the “Colony forming units” value ([2]; 50 ppm, 5 minutes) was 221 ± 5 CFU. The “Colony forming units” value ([2]; 50 ppm, 10 minutes) was 19 ± 3 CFU, the “Colony forming units” value ([2]; 50 ppm, 20 minutes) was 4.75 ± 0.4 CFU and the “Colony forming units” value ([2]; 50 ppm, 60 minutes) was 0.75 ± 0.4 CFU. For the same substance, the “Colony forming units” value ([2]; 100 ppm, 5 minutes) was 171 ± 219 CFU, the “Colony forming units” value ([2]; 100 ppm, 10 minutes) was 6.5 ± 4.2 CFU and the “Colony forming units” value ([2]; 100 ppm, 20 minutes) was 0.5 ± 0 CFU. The “Colony forming units” value ([2]; 100 ppm, 60 minutes) was 0 ± 0 CFU, the “Colony forming units” value ([2]; 200 ppm, 5 minutes) was 14 ± 18 CFU and the “Colony forming units” value ([2]; 200 ppm, 10 minutes) was 5.75 ± 4.6 CFU. The “Colony forming units” value ([2]; 200 ppm, 20 minutes) was 0.25 ± 0.4 CFU, the “Colony forming units” value ([2]; 200 ppm, 60 minutes) was 0 ± 0 CFU and the “Colony forming units” value ([2]; 500 ppm, 5 minutes) was 19 ± 22 CFU. The “Colony forming units” value ([2]; 500 ppm, 10 minutes) was 0.25 ± 0.4 CFU, the “Colony forming units” value ([2]; 500 ppm, 20 minutes) was 0.75 ± 1.1 CFU and the “Colony forming units” value ([2]; 500 ppm, 60 minutes) was 0 ± 0 CFU. For the same substance, the “Colony forming units” value ([2]; 1000 ppm, 5 minutes) was 1.25 ± 0.4 CFU, the “Colony forming units” value ([2]; 1000 ppm, 10 minutes) was 0 ± 0 CFU and the “Colony forming units” value ([2]; 1000 ppm, 20 minutes) was 0 ± 0 CFU. The “Colony forming units” value ([2]; 1000 ppm, 60 minutes) was 0 ± 0 CFU.
With zinc pyrithione [ZPT] the Inhibition in words ([1]; 50-1000 ppm, up to 60 minutes) was “no significant inhibition”, the “Colony forming units” value ([1]; 50 ppm, 5 minutes) was 2000 ± 0 CFU and the “Colony forming units” value ([1]; 50 ppm, 10 minutes) was 2000 ± 0 CFU. For the same substance, the “Colony forming units” value ([1]; 50 ppm, 20 minutes) was 2000 ± 0 CFU, the “Colony forming units” value ([1]; 50 ppm, 60 minutes) was 2000 ± 0 CFU and the “Colony forming units” value ([1]; 100 ppm, 5 minutes) was 2000 ± 0 CFU. For the same substance, the “Colony forming units” value ([1]; 100 ppm, 10 minutes) was 2000 ± 0 CFU, the “Colony forming units” value ([1]; 100 ppm, 20 minutes) was 2000 ± 0 CFU and the “Colony forming units” value ([1]; 100 ppm, 60 minutes) was 2000 ± 0 CFU. For the same substance, the “Colony forming units” value ([1]; 200 ppm, 5 minutes) was 2000 ± 0 CFU, the “Colony forming units” value ([1]; 200 ppm, 10 minutes) was 2000 ± 0 CFU and the “Colony forming units” value ([1]; 200 ppm, 20 minutes) was 2000 ± 0 CFU. The “Colony forming units” value ([1]; 200 ppm, 60 minutes) was 2000 ± 0 CFU, the “Colony forming units” value ([1]; 500 ppm, 5 minutes) was 2000 ± 0 CFU and the “Colony forming units” value ([1]; 500 ppm, 10 minutes) was 2000 ± 0 CFU. The “Colony forming units” value ([1]; 500 ppm, 20 minutes) was 2000 ± 0 CFU, the “Colony forming units” value ([1]; 500 ppm, 60 minutes) was 2000 ± 0 CFU and the “Colony forming units” value ([1]; 1000 ppm, 5 minutes) was 2000 ± 0 CFU. For the same substance, the “Colony forming units” value ([1]; 1000 ppm, 10 minutes) was 2000 ± 0 CFU, the “Colony forming units” value ([1]; 1000 ppm, 20 minutes) was 2000 ± 0 CFU and the “Colony forming units” value ([1]; 1000 ppm, 60 minutes) was 2000 ± 0 CFU. The Inhibition in words ([2]; 50 ppm and 100 ppm) was “low inhibition”, the “Colony forming units” value ([2]; 50 ppm, 5 minutes) was 2000 ± 0 CFU and the “Colony forming units” value ([2]; 50 ppm, 10 minutes) was 2000 ± 0 CFU. The “Colony forming units” value ([2]; 50 ppm, 20 minutes) was 1033 ± 1368 CFU, the “Colony forming units” value ([2]; 50 ppm, 60 minutes) was 522 ± 721 CFU and the “Colony forming units” value ([2]; 100 ppm, 5 minutes) was 2000 ± 0 CFU. For the same substance, the “Colony forming units” value ([2]; 100 ppm, 10 minutes) was 2000 ± 0 CFU, the “Colony forming units” value ([2]; 100 ppm, 20 minutes) was 1200 ± 1131 CFU and the “Colony forming units” value ([2]; 100 ppm, 60 minutes) was 707 ± 698 CFU. For the same substance, the “Colony forming units” value ([2]; 200 ppm, 5 minutes) was 2000 ± 0 CFU, the “Colony forming units” value ([2]; 200 ppm, 10 minutes) was 2000 ± 0 CFU and the “Colony forming units” value ([2]; 200 ppm, 20 minutes) was 2000 ± 0 CFU. For the same substance, the “Colony forming units” value ([2]; 200 ppm, 60 minutes) was 2000 ± 0 CFU, the “Colony forming units” value ([2]; 500 ppm, 5 minutes) was 2000 ± 0 CFU and the “Colony forming units” value ([2]; 500 ppm, 10 minutes) was 2000 ± 0 CFU. The “Colony forming units” value ([2]; 500 ppm, 20 minutes) was 2000 ± 0 CFU, the “Colony forming units” value ([2]; 500 ppm, 60 minutes) was 2000 ± 0 CFU and the “Colony forming units” value ([2]; 1000 ppm, 5 minutes) was 2000 ± 0 CFU. The “Colony forming units” value ([2]; 1000 ppm, 10 minutes) was 2000 ± 0 CFU, the “Colony forming units” value ([2]; 1000 ppm, 20 minutes) was 2000 ± 0 CFU and the “Colony forming units” value ([2]; 1000 ppm, 60 minutes) was 2000 ± 0 CFU. For the same substance, the Inhibition in words ([2]; higher concentrations (200-1000 ppm)) was “no significant inhibition”.
